Data: patent publication US20090215826A1, “SOLID FORMS OF A PYRROLIDINE-3,4-DICARBOXAMIDE DERIVATIVE” (priority 2007, published 2009)

Assay: Storage stability of crystalline form B (HPLC, IR, XRPD)
Format: physicochemical
Conditions: storage for 1 year up to 40° C./75% rh
Description: “IR” is used herein as an acronym of Infra Red spectroscopy. IR spectra were recorded as film of a Nujol suspension of approximately 5 mg of sample and few Nujol between two sodium chloride plates, with an FTIR spectrometer in transmittance. The Spectrometer is a Nicolet™ 20SXB or equivalent (resolution 2 cm^−1, 32 or more coadded scans, MCT detector).
“XRPD (is used herein as an acronym of X-Ray Powder Diffraction)” X-ray diffraction patterns were recorded at ambient conditions in transmission geometry with a STOE STADIP diffractometer (Cu Kα radiation, primary monochromator, position sensitive detector, angular range 3° to 42° 2 Theta, approximately 60 minutes total measurement time). The samples were prepared and analyzed without further processing (e.g. grinding or sieving) of the substance. “TGA (is used herein as an acronym of ThermoGravimetric Analysis)” was performed on a Mettler-Toledo™ thermogravimetric analyzer (TGA850 or TGA851). System suitability tests and calibrations were carried out according to the internal standard operation procedure.
The Form B has been characterized with IR and XRPD. The chemical stability was measured by HPLC (high performance liquid chromatography).

For O=C(Nc1ccc(Cl)cn1)[C@H]1CN(CC(F)F)C[C@@H]1C(=O)Nc1ccc(-n2ccccc2=O)cc1F [Form B, (3R,4R)-1-(2,2-Difluoroethyl)-pyrrolidine-3,4-dicarboxylic acid 3-[(5-chloro-pyridin-2-yl)-amide] 4-{[2-fluoro-4-(2-oxo-2H-pyridin-1-yl)-phenyl]-amide}], the “chemical stability (degradation) measured by HPLC” value was “No significant degradation” and the “crystal form compared to the initial analysis (IR and XRPD)” value was “has not been changed”.
